Assay results from patent publication US8729122B2, “Pharmaceutical and nutraceutical compositions of abscisic acid” (Valent BioSciences Corporation, priority 2010, dated 2014).

What was measured:
[1] = tested on: rats; test: Two Generation Reproduction Toxicity Study (dietary S-ABA); format: in vivo; conditions: for SPLEEN WEIGHT, % DIFFERENCE: versus 0 PPM
Method: Two Generation Reproduction Toxicity Study
This study was conducted to determine the potential adverse effects of the test substance on reproduction in a 2-generation study. This included determining the effects of the test substance on male and female reproductive processes, including gonadal function, estrous cyclicity, mating behavior, conception, gestation, parturition, lactation, weaning, and on growth and development of the offspring. A minimum of 1 litter was produced in each generation.
Three groups of male and female were offered S-ABA, continuously in the diet for at least 70 consecutive days prior to mating. Target tests substance concentrations were 10,000, 15,000, and 20,000 ppm for the F0 and F1 generations. A concurrent control group of 30 rats/sex was offered the basal diet continuously throughout the study. F0 animals were approximately 7 weeks of age at the initiation of test diet administration. The test diet was administered to the offspring selected to become the F1 generation following weaning. The F0 and F1 males continued to receive the test substance throughout mating and continuing through the day prior to euthanasia. The F0 and F1 females continued to receive the test substance throughout mating, gestation, and lactation, and through the day of euthanasia. For both generations (F1 and F2), 8 pups per litter (4 per sex, when possible) were selected to reduce the variability among the litters. Offspring (30/sex/group, if possible) from the pairing of the F0 animals were selected to constitute the F1 generation.
All animals were observed twice daily for appearance and behavior. Clinical observations, body weights, and food consumption were recorded at appropriate intervals for males throughout the study and for females prior to mating and during gestation and lactation. All F0 and F1 females were allowed to deliver and rear their pups until weaning on lactation day 21. Clinical observations, body weights, and sexes for F1 and F2 pups were recorded at appropriate intervals. Nonselected F1 pups and all surviving F2 pups were necropsied. Selected organs were weighed from 1 pup/sex/litter from F1 and F2 pups that were necropsied. Each surviving F0 and F1 parental animal received a complete detailed gross necropsy following the completion of weaning of the F1 and F2 pups, respectively; selected organs were weighed. Spermatogenic endpoints were recorded for all F0 and F1 males, and ovarian primordial follicle counts were recorded for all F0 and F1 females in the control and high-exposure groups and all F0 and F1 females suspected of reduced fertility. Designated tissues from all F0 and F1 parental animals were examined microscopically.

[2] = tested on: rats; test: 90-Day Oral Toxicity Study in Rodents (dietary S-ABA); format: in vivo; conditions: for PROSTATE WEIGHT, mean: 90 days
Method: Tests were conducted with (S)-(+)-abscisic acid in accordance with standard guidelines and procedures as evidenced by EPA Subchronic Toxicity Test Guidelines: 870.3050—Repeated Dose 28-Day Oral Toxicity Study in Rodents (July 2000); 870.3100—90-Day Oral Toxicity in Rodents (August 1998); 870.3650—Combined Repeated Dose Toxicity Study with the Reproduction/Developmental Toxicity Screening Test (July 2000); and 870.3200—21/28-Day Dermal Toxicity (August 1998), as well as Organization for Economic Co-operation and Development (OECD) Guidelines for the Testing of Chemicals including: Test No. 407: Repeated Dose 28-day Oral Toxicity Study in Rodents; Test No. 408: Repeated Dose 90-Day Oral Toxicity Study in Rodents; Test No. 416: Two-Generation Reproduction Toxicity; and Test No. 410: Repeated Dose Dermal Toxicity: 21/28-day Study.
90-Day Oral Toxicity Study in Rodents
From the batch supplied (42 males and 42 females), 40 males and 40 females were assigned to the study. Animals were allocated to 4 dose groups and treated as follows:
The animals were dosed by the dietary route 7 days/week for 13 consecutive weeks and up to immediately before terminal kill. Control animals received blank diet only. The concentration was constant throughout the treatment period. Detailed examinations were conducted on all animals during Weeks 4, 8 and 12. Histopathological evaluation of all tissues was undertaken for all animals in the Control and dose groups. Observations and testing results from this study can be seen in Tables 2, 4 and 5 below.
In a 90 day toxicity study in rats, glucose and triglyceride levels were measured.

[3] = second generation pups, 10,000 PPM
[4] = second generation pups, 15,000 PPM
[5] = second generation pups, 20,000 PPM

CC1=CC(=O)CC(C)(C)[C@@]1(O)/C=C/C(C)=C\C(=O)O [S-ABA, (S)-(+)-abscisic acid]
OFFSPRING WEIGHT, mean ([1]; 15,000 ppm, female, postnatal day 7): 14.0 grams
OFFSPRING WEIGHT, mean ([1]; 15,000 ppm, female, postnatal day 14): 29.8 grams
OFFSPRING WEIGHT, mean ([1]; 15,000 ppm, female, postnatal day 21): 45.8 grams
OFFSPRING WEIGHT, mean ([1]; 15,000 ppm, male, postnatal day 1): 6.9 grams
OFFSPRING WEIGHT, mean ([1]; 15,000 ppm, male, postnatal day 4): 9.3 grams
OFFSPRING WEIGHT, mean ([1]; 15,000 ppm, male, postnatal day 7): 14.7 grams
OFFSPRING WEIGHT, mean ([1]; 15,000 ppm, male, postnatal day 14): 30.8 grams
OFFSPRING WEIGHT, mean ([1]; 15,000 ppm, male, postnatal day 21): 47.8 grams
SPERM PRODUCTION RATE, mean ([1]; 20,000 PPM): 10.5 MILLIONS/GRAM/DAY
Mean Live Offspring Born (per litter) ([1]; 20,000 ppm): 12.3
Offspring Born ([1]; 20,000 ppm): 327
Offspring FOUND DEAD ([1]; 20,000 ppm): 11
POSTNATAL SURVIVAL, BIRTH-4 (PRE-SELECT), mean ([1]; 20,000 ppm): 96.8 % PER LITTER
POSTNATAL SURVIVAL, POSTNATAL DAY 0 (RELATIVE TO # BORN), mean ([1]; 20,000 ppm): 98.5 % PER LITTER
POSTNATAL SURVIVAL, POSTNATAL DAY 0-1, mean ([1]; 20,000 ppm): 99.7 % PER LITTER
POSTNATAL SURVIVAL, POSTNATAL DAY 1-4 (PRE-SELECTION), mean ([1]; 20,000 ppm): 98.5 % PER LITTER
POSTNATAL SURVIVAL, POSTNATAL DAY 4 (POST-SELECT)-21, mean ([1]; 20,000 ppm): 98.0 % PER LITTER
POSTNATAL SURVIVAL, POSTNATAL DAY 4 (POST-SELECTION)-7, mean ([1]; 20,000 ppm): 98.5 % PER LITTER
POSTNATAL SURVIVAL, POSTNATAL DAY 7-14, mean ([1]; 20,000 ppm): 99.5 % PER LITTER
POSTNATAL SURVIVAL, POSTNATAL DAY 14-21, mean ([1]; 20,000 ppm): 100.0 % PER LITTER
OFFSPRING WEIGHT, mean ([1]; 20,000 ppm, female, postnatal day 1): 6.6 grams
OFFSPRING WEIGHT, mean ([1]; 20,000 ppm, female, postnatal day 4): 8.8 grams
OFFSPRING WEIGHT, mean ([1]; 20,000 ppm, female, postnatal day 7): 14.5 grams
OFFSPRING WEIGHT, mean ([1]; 20,000 ppm, female, postnatal day 14): 30.5 grams
OFFSPRING WEIGHT, mean ([1]; 20,000 ppm, female, postnatal day 21): 46.6 grams
OFFSPRING WEIGHT, mean ([1]; 20,000 ppm, male, postnatal day 1): 7.0 grams
OFFSPRING WEIGHT, mean ([1]; 20,000 ppm, male, postnatal day 4): 9.3 grams
OFFSPRING WEIGHT, mean ([1]; 20,000 ppm, male, postnatal day 7): 15.1 grams
OFFSPRING WEIGHT, mean ([1]; 20,000 ppm, male, postnatal day 14): 31.2 grams
OFFSPRING WEIGHT, mean ([1]; 20,000 ppm, male, postnatal day 21): 48.1 grams
OVARIAN PRIMORDIAL FOLLICLE COUNTS, mean ([1]; females, 10,000 PPM): 257.5
OVARIAN PRIMORDIAL FOLLICLE COUNTS, mean ([1]; females, 15,000 PPM): 214.0
OVARIAN PRIMORDIAL FOLLICLE COUNTS, mean ([1]; females, 20,000 PPM): 270.3
PROSTATE WEIGHT, ORGAN WEIGHT, mean ([1]; male rats, 10,000 ppm in diet): 1.08 GRAMS
PROSTATE WEIGHT, ORGAN WEIGHT, mean ([1]; male rats, 15,000 ppm in diet): 1.13 GRAMS
PROSTATE WEIGHT, ORGAN WEIGHT, mean ([1]; male rats, 20,000 ppm in diet): 1.09 GRAMS
SPLEEN WEIGHT, mean ([1]; males, 10,000 PPM): 0.98 GRAMS
SPLEEN WEIGHT, % DIFFERENCE ([1]; males, 10,000 PPM): −2.0%
SPLEEN WEIGHT, mean ([1]; males, 15,000 PPM): 0.97 GRAMS
SPLEEN WEIGHT, % DIFFERENCE ([1]; males, 15,000 PPM): −3.0%
SPLEEN WEIGHT, mean ([1]; males, 20,000 PPM): 0.92 GRAMS
SPLEEN WEIGHT, % DIFFERENCE ([1]; males, 20,000 PPM): −8.9%
impact of prostate weight reduction on sperm production ([1]; rats, two-generation study): no impact on sperm production
SPLEEN WEIGHT, mean [1, 3]: 0.1989 GRAMS
SPLEEN WEIGHT, % DIFFERENCE [1, 3]: −14.8%
SPLEEN WEIGHT, mean [1, 4]: 0.1918 GRAMS
SPLEEN WEIGHT, % DIFFERENCE [1, 4]: −17.8%
SPLEEN WEIGHT, mean [1, 5]: 0.1979 GRAMS
SPLEEN WEIGHT, % DIFFERENCE [1, 5]: −15.2%
PROSTATE WEIGHT, mean ([2]; group 2, 2,000 ppm in diet): MEAN = 0.731 GRAMS
PROSTATE WEIGHT, mean ([2]; group 3, 6,000 ppm in diet): MEAN = 0.908 GRAMS
PROSTATE WEIGHT, mean ([2]; group 4, 20,000 ppm in diet): MEAN = 0.827 GRAMS
effect on triglyceride levels ([2]; male and female rats, 2,000 ppm to 20,000 ppm): dose dependent decrease in triglyceride levels
